Experimental data published in patent US8158670B2 (priority 1996, dated 2012).
Where two headings read alike, the source gives them in different places.

Tests used:
[1] = tested on: Vascular smooth muscle (BO54) cells; type: cell-based, baboon; conditions: 5 minute exposure
[2] = tested on: vascular smooth muscle cells
[3] = pig, in vivo
[4] = tested on: Vascular smooth muscle cells (BO54); experiment: Scratch-migration assay; type: cell-based, baboon; set-up: key: −=no migration; +1=minimal; +2=mild; +3=moderate; +4=marked (maximum density; limit of cell contact inhibition) migration
Description: Vascular smooth muscle cells (BO54) were derived from explants of baboon aortic smooth muscle, as described in Example 10. The cells were grown in flat bottom, six well tissue culture plates, which hold about 5 ml of medium. The vascular smooth muscle cells were plated at 200,000 cells/well and placed at 37° C. in a humidified 5% CO2 incubator for 18 hours. The wells were then scratched with a sterile portion of a single edge razor blade that was held by clamp or pliers and was brought aseptically into contact with the bottom of the well at a 90° angle. The cells from a small area along the scratch were removed by a sterile cotton tipped applicator while the blade was in contact with the bottom of the well. After incubation, the presence of cells in the “scratched” area is indicative of cell migration across the scratch line.
Briefly, a stock solution of cytochalasin B (Sigma Chemical Co.) in dimethyl sulfoxide (DMSO) at 1 mg/ml was prepared. Test dilutions of cytochalasin B or control medium were added. Each experiment included two sets of plates:
A set: Test agent exposure for 1, 3, 6, 8 and 10 days only; and
B set: Test agent exposure for 1, 3, 6, 8 and 10 days, followed by a seven day recovery time with control medium.
Both sets of plates were fixed (10% formalin in PBS) and stained (0.02% crystal violet) at the end of the timed exposures. Test concentrations for cytochalasin B were 1, 0.1 and 0.01 μg/ml, and a negative medium control was included. Fresh medium and drug were supplied 3 times per week.
In this Table, “M” indicates Migration Grade. wherein −=no migration; +1=minimal; +2=mild; +3=moderate; and +4=marked (maximum density; limit of cell contact inhibition) migration of vascular smooth muscle cells into the cleared area adjacent to the scratch. In this Table, “T” denotes a morphological Toxicity Grade, wherein −=no toxicity; +1=minimal; +2=mild; +3=moderate; and +4=marked toxicity. The migration results are expressed as “Grade in the Cleared Area of the Well/Grade in an Undisturbed Region of the Well.” The toxicity values represent a grade for all cells in each well.

C=C1[C@@H](C)[C@H]2[C@H](Cc3ccccc3)NC(=O)[C@]23OC(=O)/C=C/[C@H](O)CCC[C@@H](C)C/C=C/[C@H]3[C@@H]1O [cytochalasin B]
minimum effective dose (MED) [1]: 10 µg/mL
morphological cytotoxicity grade ([2]; 5 min + 24 hrs, 0.1 ug): 0
morphological cytotoxicity grade ([2]; 5 min + 24 hrs, 1 ug): 0.5
morphological cytotoxicity grade ([2]; 5 min + 24 hrs, 10 ug): 4
morphological cytotoxicity grade ([2]; 5 min + 48 hrs, 0.1 ug): 0
morphological cytotoxicity grade ([2]; 5 min + 48 hrs, 1 ug): 1
morphological cytotoxicity grade ([2]; 5 min + 48 hrs, 10 ug): 4
morphological cytotoxicity grade ([2]; 5 min + 72 hrs, 0.1 ug): 0
morphological cytotoxicity grade ([2]; 5 min + 72 hrs, 1 ug): 1
morphological cytotoxicity grade ([2]; 5 min + 72 hrs, 10 ug): 4.5
morphological cytotoxicity grade ([2]; 5 min + 96 hrs, 0.1 ug): 0
morphological cytotoxicity grade ([2]; 5 min + 96 hrs, 1 ug): 1
morphological cytotoxicity grade ([2]; 5 min + 96 hrs, 10 ug): 5
morphological cytotoxicity grade ([2]; 5 min + 120 hrs, 0.1 ug): 0
morphological cytotoxicity grade ([2]; 5 min + 120 hrs, 1 ug): 1
morphological cytotoxicity grade ([2]; 5 min + 120 hrs, 10 ug): 5
morphological cytotoxicity grade ([2]; 24 hrs + 24 hrs, 0.01 ug): 0
morphological cytotoxicity grade ([2]; 24 hrs + 24 hrs, 0.1 ug): 0.5
morphological cytotoxicity grade ([2]; 24 hrs + 24 hrs, 1 ug): 3
morphological cytotoxicity grade ([2]; 24 hrs + 48 hrs, 0.01 ug): 0
morphological cytotoxicity grade ([2]; 24 hrs + 48 hrs, 0.1 ug): 1
morphological cytotoxicity grade ([2]; 24 hrs + 48 hrs, 1 ug): 4
morphological cytotoxicity grade ([2]; 24 hrs + 72 hrs, 0.01 ug): 0
morphological cytotoxicity grade ([2]; 24 hrs + 72 hrs, 0.1 ug): 0.5
morphological cytotoxicity grade ([2]; 24 hrs + 72 hrs, 1 ug): 4
morphological cytotoxicity grade ([2]; 24 hrs + 96 hrs, 0.01 ug): 0
morphological cytotoxicity grade ([2]; 24 hrs + 96 hrs, 0.1 ug): 0
morphological cytotoxicity grade ([2]; 24 hrs + 96 hrs, 1 ug): 4
morphological cytotoxicity grade ([2]; 24 hrs + 120 hrs, 0.01 ug): 0
morphological cytotoxicity grade ([2]; 24 hrs + 120 hrs, 0.1 ug): 0
morphological cytotoxicity grade ([2]; 24 hrs + 120 hrs, 1 ug): 4
morphological cytotoxicity grade ([2]; Continuous 6 hrs, 0.01 ug): 0
morphological cytotoxicity grade ([2]; Continuous 6 hrs, 0.1 ug): 0
morphological cytotoxicity grade ([2]; Continuous 6 hrs, 1 ug): 3
morphological cytotoxicity grade ([2]; Continuous 24 hrs (first listing, r16), 0.01 ug): 0
morphological cytotoxicity grade ([2]; Continuous 24 hrs (first listing, r16), 0.1 ug): 1
morphological cytotoxicity grade ([2]; Continuous 24 hrs (first listing, r16), 1 ug): 3
morphological cytotoxicity grade ([2]; Continuous 24 hrs (second listing, r22), 0.01 ug): 0
morphological cytotoxicity grade ([2]; Continuous 24 hrs (second listing, r22), 0.1 ug): 0
morphological cytotoxicity grade ([2]; Continuous 24 hrs (second listing, r22), 1 ug): 3
morphological cytotoxicity grade ([2]; Continuous 48 hrs, 0.01 ug): 0
morphological cytotoxicity grade ([2]; Continuous 48 hrs, 0.1 ug): 1
morphological cytotoxicity grade ([2]; Continuous 48 hrs, 1 ug): 3
incidence of mural microthrombi [3]: decreased
lumen area of test region versus normal control segment of the same artery [3]: approximately two times as large
luminal area versus other test agents or controls [3]: larger luminal area
percent change in treated vs. normal luminal area (increase) [3]: ≈ 140%
toxicity to the vascular smooth muscle cells [3]: appeared to be toxic to the vascular smooth muscle cells
± percent change in treated vs. normal luminal area [3]: ≈ 20%
morphological Toxicity Grade ([4]; Day 3, Continuous Exposure, 1.0 μg/mL): +3
morphological Toxicity Grade ([4]; Day 3 exposure, 7-day Recovery Post Exposure, 1.0 μg/mL): +1
morphological Toxicity Grade ([4]; Day 6, Continuous Exposure, 0.1 μg/mL): +1
morphological Toxicity Grade ([4]; Day 6 exposure, 7-day Recovery Post Exposure, 1.0 μg/mL): +3
morphological Toxicity Grade ([4]; Day 8, Continuous Exposure, 0.1 μg/mL): +1
morphological Toxicity Grade ([4]; Day 8 exposure, 7-day Recovery Post Exposure, 1.0 μg/mL): +3
morphological Toxicity Grade ([4]; Day 10, Continuous Exposure, 0.1 μg/mL): +1
morphological Toxicity Grade ([4]; Day 10 exposure, 7-day Recovery Post Exposure, 1.0 μg/mL): +3
